Test results published in patent US5900250A, “Monoglyceride/lactate ester permeation enhancer for oxybutnin” (ALZA Corporation, priority 1998, dated 1999).

Legend:
[1] = in vitro permeation of oxybutynin through human epidermis at 35° C., EVA 40 systems on horizontal permeation cells (Examples 4-5); type: in vitro ADME; conditions: R- or S-oxybutynin versus racemate
Protocol: Oxybutynin, glycerol monolaurate and lauryl lactate were then added.
When EVA 40 was used the mixture was blended, cooled and calendered to a 5 mil thick film. This film was then laminated to an acrylic contact adhesive (MSP041991P, 3M) on one side and Medpar® backing (3M) on the opposite side. The laminate was then cut into 2.54 cm^2 circles using a stainless steel punch. Circular pieces of human-epidermis were mounted on horizontal permeation cells with the stratum corneum facing the donor compartment of the cell. The release liner of the system was then removed and the system was centered over the stratum corneum side of the epidermis.

[2] = aqueous solution 25 mg/mL, 0.05 M isotonic phosphate buffer, 20 μm polybutadiene film, cited from earlier work
[3] = type: in vivo, human; conditions: after the initial application; transdermal with permeation enhancing mixture
Protocol: Therapeutic blood levels can be achieved within approximately 6-10 hours after the initial application, and blood concentrations are maintained with subsequent system applications. The range of desired and achievable system permeation rates of oxybutynin, arriving through the skin from a limited area, is 1-20 mg over a period of 24 hours. The system application is easily adapted for shorter or longer duration treatments, but generally 72 hours is the duration for a single application.

[4] = solubility of glycerol monolaurate in lauryl lactate / EVA 40; type: physicochemical; conditions: for Wt % GML in solution: based on GML solubility of 350 mg/g
Text: The unexpected effects of the specific weight percentages of the components of the permeation enhancer mixture are believed to be due, in part, to the solubility of the monoglyceride in the lactic acid ester. It is known that monoglycerides by themselves are effective permeation enhancers. The enhancement occurs by the solubilization of the monoglyceride in the lipid layer of the skin. The solubilization of the monoglyceride in the lipid layer increases as a function of lactic acid ester concentration. […] Thus, the amount of GML dissolved, ie, free GML, is dictated by and proportional to the lauryl lactate loading in the polymer.

## CCN(CC)CC#CCOC(=O)[C@](O)(c1ccccc1)C1CCCCC1 [R-oxybutynin]
[1]
  flux of enantiomer relative to racemate, in words: approximately equivalent to that of the racemate

## CCN(CC)CC#CCOC(=O)C(O)(c1ccccc1)C1CCCCC1 (centres unmarked) [Oxybutynin]
[2]
  in vitro release rate (per area): ~10 μg/cm^2.hr
[2]; through a 49 cm^2 area
  in vitro release rate (amount over 24 hours): approximately 12 mg over 24 hours
[3]
  time to therapeutic blood levels: 6 to 10 h

## CCCCCCCCCCCC(=O)OCC(O)CO (centres unmarked) [GML, glycerol monolaurate]
[4]; 12% lauryl lactate in EVA 40
  Wt % GML in solution: 4.2%
[4]; 20% lauryl lactate in EVA 40
  Wt % GML in solution: 7.0%
[4]; 27% lauryl lactate in EVA 40
  Wt % GML in solution: 9.5%
[4]; 30% lauryl lactate in EVA 40
  Wt % GML in solution: 10.5%
[4]; EVA 40 matrix
  solubility in EVA 40 matrix: practically insoluble
[4]; solution stirred
  solubility of glycerol monolaurate in lauryl lactate: 350 mg/g of solution

## CCN(CC)CC#CCOC(=O)[C@@](O)(c1ccccc1)C1CCCCC1 [S-oxybutynin]
[1]
  flux of enantiomer relative to racemate, in words: approximately equivalent to that of the racemate
